The record followed here is patent publication US7256203B2, “Dicationic 2,5-diarylfuran aza-analogs as anti-protozoan agents” (The University of North Carolina at Chapel Hill, priority 2002, dated 2007).

Counter-ions that a name gives are not always drawn. Like-named read-outs stand apart in the source and are kept apart here.

The test system of data set [1] is Trypanosoma brucei rhodesiense. Briefly: In vitro anti-protozoan data, T. b. r. Format: cell-based.
For a further data set, the system named is Plasmodium falciparum. Briefly: In vitro anti-protozoan data, P. f. Format: cell-based.
Another data set concerns Leishmania donovani. Briefly: In vitro anti-protozoan data, L. d. Format: cell-based.
Data set [2] relates to STIB900 strain of T. b. r. The experiment in a line: Mouse model of virulent STIB900 strain of T. b. r. Format: in vivo.
The test system of the next data set is T. b. r. Briefly: CNS model in mice (2nd stage human African trypanosomiasis). Format: in vivo. The conditions noted are these: through day 120 of an experiment slated for 180 days.
Setting [3] is: Trypanosoma brucei, RHODESIENSE, in vitro, read-out: T. b. r. IC50.
[4] abbreviates: Plasmodium falciparum, in vitro, read-out: IC-50 values versus Plasmodium falciparum (p.f.).
The mark [5] stands for this setting: Plasmodium falciparum, in vitro, read-out: P. f. IC50.
Setting [6] is: in vitro, read-out: T. b. r. IC50.

With `N=C(NO)c1ccc(-c2ccc(-c3ccc(C(=N)NO)cn3)o2)cc1` [Compound 4, N-Hydroxy-6-{5-[4-(N-hydroxycarbamimidoyl)-phenyl]-furan-2-yl}-nicotinamidine], the IC50 in data set [1] (setting [3]) is 120 µM; in the data set on Plasmodium falciparum (setting [4]), less than 0.01 µM; in the data set on Plasmodium falciparum (setting [5]), 0.0043 µM; in the data set with Leishmania donovani (Leishmania donovani), more than 195 µM.
On to `N=C(N)c1ccc(-c2ccc(-c3ccc(C(=N)N)cn3)o2)nc1` [Compound 24, 2,5-Bis[5-amidine-2-pyridyl)furan], for which the IC50 in data set [1] (setting [6]) was 0.021 µM; with Plasmodium falciparum (in vitro, read-out: P. f. IC50) it was 0.083 µM; with Leishmania donovani, 193 µM.
The term melting point denotes the temperature of the solid-liquid transition. `N=C(NO)c1ccc(-c2ccc(-c3ccc(C(=N)NO)nc3)o2)cc1` [Compound 17, N-Hydroxy-5-{5-[4-(N-hydroxycarbamimidoyl)-phenyl]-furan-2-yl}-pyridine-2-carboxamidine]: the melting point lay within 276 to 279 °C. The IC50 in data set [1] (setting [3]) amounted to 200 µM. Also, in the data set on Plasmodium falciparum (setting [5]), the IC50 was more than 11.7 µM.
`CONC(=N)c1ccc(-c2ccc(-c3ccc(C(=N)NOC)nc3)o2)cc1` [Compound 18, N-Methoxy-5-{5-[4-(N-methoxycarbamimidoyl)-phenyl]-furan-2-yl}-pyridin-2-carboxamidine] had a melting point of 142 to 143 °C. Also, in data set [1] (setting [3]), the IC50 was determined as 6.5 µM. In addition, in the data set on Plasmodium falciparum (setting [5]), the IC50 is 8.5 µM.
Turning to `N=C(NO)c1ccc(-c2ccc(-c3ccc(C(=N)NO)cn3)s2)cc1` [Compound 11, N-Hydroxy-6-{5-[4-(N-hydroxycarbamimidoyl)-phenyl]-thiophen-2-yl}-nicotinamidine], the melting point was 293 to 295 °C (dec.). Besides, the IC50 in data set [1] (setting [3]) is more than 187 µM. For the same molecule, in the data set on Plasmodium falciparum (setting [5]), the IC50 is more than 10.4 µM. The IC50 with Leishmania donovani (Leishmania donovani) is more than 187 µM.
`CC(=O)ONC(=N)c1ccc(Cc2ccc(-c3ccc(C(=N)NOC(C)=O)cn3)o2)cc1` [Compound 37, N-Acetoxy-6-{5-[4-(N-acetoxycarbamimidoyl)benzyl]-furan-2-yl}-nicotinamidine] gave a melting point of 194 to 196 °C.
`CC(=O)ONC(=N)c1ccc(-c2ccc(-c3ccc(C(=N)NOC(C)=O)cc3C)o2)nc1` [Compound 30, N-Acetoxy-6-{5-[4-(N-acetoxycarbamimidoyl)-2-methyl-phenyl]-furan-2-yl}-nicotinamidine] showed a melting point of 203 to 205 °C.
Still for that read-out and setting: for `Cc1cc(C(=N)NO)ccc1-c1ccc(-c2ccc(C(=N)NO)cn2)o1` [Compound 29, N-Hydroxy-6-{5-[4-(N-hydroxycarbamimidoyl)-2-methyl-phenyl]-furan-2-yl}-nicotinamidine] the value was 196 to 198 °C; for `CC(=O)ONC(=N)c1ccc(-c2ccc(-c3ccc(C(=N)NOC(C)=O)nc3)o2)cc1` [Compound 19, N -Acetoxy-5-{5-[4-(N-Acetoxycarbamimidoyl)-phenyl]-furan-2-yl}-pyridine-2-carboxamidine], 267 to 270 °C.
In the case of `N=C(NO)c1ccc(-c2ccc(-c3ccc(C(=N)NO)cn3)o2)nc1` [Compound 22, 2,5-Bis[5-(N-hydroxycarbamimidoyl)-2-pyridyl)furan], the melting point is 272 to 274 °C (dec.). Also, the IC50 in data set [1] (setting [3]) is 55.8 µM. Also, the IC50 in the data set with Plasmodium falciparum (setting [5]) was more than 0.0102 µM. In the data set with Leishmania donovani (Leishmania donovani), this molecule returned an IC50 of 77 µM.
`N=C(N)c1ccc(-c2ccc(-c3ccc(C(=N)N)nc3)o2)cc1` [Compound 20, 5-[5-(4-Carbamimidoyl-phenyl)-furan-2-yl]-pyridine-2-carboxamidine actate salt]: the IC50 in data set [1] (setting [6]) was 0.0031 µM; in the data set on Plasmodium falciparum (in vitro, read-out: P. f. IC50) it was 0.0183 µM; in the data set on Leishmania donovani it was 47 µM.
In the case of `CC(=O)ONC(=N)c1ccc(-c2ccc(-c3ccc(C(=N)NOC(C)=O)cn3)o2)nc1` [Compound 23, 2,5-Bis[5-(N-acetoxycarbamimidoyl)-2-pyridyl)furan], the melting point is 299 to 300 °C.
As for `CONC(=N)c1ccc(-c2ccc(-c3ccc(C(=N)NOC)cn3)o2)nc1` [Compound 27, 2,5-Bis[5-(N-methoxycarbamimidoyl)-2-pyridyl)furan], the IC50 is 11.1 µM in data set [1] (setting [3]), less than 0.01 µM with Plasmodium falciparum (setting [4]), 0.00177 µM in the data set on Plasmodium falciparum (setting [5]) and more than 166 µM in the data set on Leishmania donovani (Leishmania donovani).
With `CONC(=N)c1ccc(-c2ccc(-c3ccc(C(=N)NOC)cn3)s2)cc1` [Compound 12, N-Methoxy-6-{5-[4-(N-methoxy-carbamimidoyl)-phenyl]-thiophn-2-yl}-nicotinamidine], the IC50 in data set [1] (setting [6]) came to 9.43 µM; in the data set on Plasmodium falciparum (in vitro, read-out: P. f. IC50) it was 0.133 µM.
Molecule `N=C(NO)c1ccc(Cc2ccc(-c3ccc(C(=N)NO)cn3)o2)cc1` [Compound 36, N-Hydroxy-6-{5-[4-(N-hydroxycarbamimidoyl)benzyl]-furan-2-yl}-nicotinamidine] gave a melting point of 214 to 216 °C.
As for `N=C(N)c1ccc(-c2ccc(-c3ccc(C(=N)N)cn3)o2)cc1` [Compound 7, 6-[5-(4-Carbamimidoyl-phenyl)-furan-2-yl]-nicotinamidine], the IC50 is less than 0.01 µM in data set [1] (Trypanosoma brucei, RHODESIENSE, read-out: IC-50 values versus Trypanosoma brucei rhodesiense (T.b.r.)); 0.007 µM in data set [1] (setting [3]); less than 0.01 µM in the data set with Plasmodium falciparum (Plasmodium falciparum, read-out: IC-50 values versus Plasmodium falciparum (p.f.)); 0.0065 µM with Plasmodium falciparum (Plasmodium falciparum, read-out: P. f. IC50); 101 µM with Leishmania donovani (Leishmania donovani). Further, the “cure of virulent STIB900 strain of T. b. r. in a mouse model” value in data set [2] is “cure”.
Regarding `N=C(NO)c1ccc(-c2ccc(C=Cc3ccccc3)o2)nc1` [Compound 33, N-Hydroxy-6-(5-styryl-furan-2-yl)-nicotinamidine], the melting point was 230 to 231 °C.
On to `CONC(=N)c1ccc(-c2ccc(-c3ccc(C(=N)NOC)cn3)o2)cc1` [Compound 5, N-Methoxy-6-{5-[4-(N-methoxy-carbamimidoyl)-phenyl]-furan-2-yl}-nicotinamidine], for which the IC50 in data set [1] (setting [3]) is 37.1 µM; with Plasmodium falciparum (setting [4]), less than 0.01 µM; with Plasmodium falciparum (setting [5]) it was 0.0049 µM; with Leishmania donovani (Leishmania donovani), 113 µM. In the data set on T. b. r., the “parasite free mice in the CNS model” value was “parasite free mice”. For the same molecule, in data set [2], the “cure of virulent STIB900 strain of T. b. r. in a mouse model” value was “cure”.
